Experiments:
[1] = cited from earlier work
[2] = NMR-based stability assay toward glutathione; format: physicochemical; conditions: 10 mM glutathione in PBS for 3 days
Source text: We envisioned this acyl transfer-based crosslinking could proceed under neutral conditions if we can identify an appropriate genetically encoded leaving group. To this end, we considered a panel of azoles with pKa values ranging from 19.8 to 8.2, and a varying degree of leaving group effect (FIG. 1a). […] Thus, we designed a series of N-carboxy-4-aryl-1,2,3-triazole-containing lysines (CATK-1-7) as well as three analogous triazolyl lysines, CATK-8, -8a, and -9, for comparison purposes (FIG. 1b). For the synthesis of CATK-1-9, the critical step involved the triphosgene-mediated coupling of aryl- or alkyl-substituted triazoles with a protected lysine. While there was no apparent selectivity for N^2-carbamoylated CATKs, the two regioisomers can be readily separated by flash chromatography. After deprotection, CATK-1-9 were obtained in 7-52% yields. […] Since analogous 1,2,4-triazoles have also been used in designing small-molecule probes for serine hydrolases, we synthesized 1,2,4-triazole-based CATK-9 in four steps with an overall yield of 43%.
In our efforts to identify genetically encoded amino acids that are stable under physiological conditions yet reactive upon photoactivation or through proximity effect, we were intrigued by β-lactam, a venerable chemical moiety found in penicillin and other β-lactam class of antibiotics. […]

wild-type PylRS = molecular target: T1, wild-type PylRS (Methanosarcina mazei, UniProt Q8PWY1); assay: Fluorescence-based detection of BeLaK incorporation into sfGFP-Q204TAG; format: cell-based; conditions: 1 mM BeLaK
T1 construct: expressed in transfected cells; host or cells: E. coli BL21(DE3) transformed with pEVOL-PylRS
Source text: (§1) To identify an aminoacyl-tRNA synthetase/tRNA pair for charging two phenylalanine derivatives, we screened our collection of pyrrolysine-tRNA synthetases (PylRS) (Table 1) using superfolder green fluorescent protein bearing an amber codon at position-204 (sfGFP-Q204TAG) as a reporter without success (FIG. 37). In parallel, to our delight, we found wild-type PylRS efficiently charges BeLaK into sfGFP-Q204TAG, with the cell lysate showing a 75-fold increase in fluorescence over the background, similar to BocK, a known substrate for wild-type PylRS (FIG. 32b). We also obtained the crystal structure of a protected BeLaK analog S11 (FIG. 38). We note the lactam ring forms an intramolecular H-bond with the lysine ε-N—H (FIG. 32a), mimicking the pyrroline ring in pyrrolysine—the native substrate of PylRS.
Site-specific incorporation of BeLaK into sfGFP. BL21(DE3) cells (50 μL) were co-transformed with the pET-sfGFP-Q204TAG and pEVOL-PylRS plasmids using the heat shock method. The cells were recovered in 900 μL SOC at 37° C. for 1 hour before plating onto a Luria-Bertani (LB) agar plate containing 100 μg/mL ampicillin and 34 μg/mL chloramphenicol. A single colony from the plate was used to inoculate 6 mL LB broth containing 100 μg/mL ampicillin and 34 μg/mL chloramphenicol. […] The supernatant was directly used for fluorescence tests after sonication and centrifugation. […]

[3] = Stability under bacterial culture conditions (intact mass of sfGFP mutants)
Source text: (§2) To identify pyrrolysine-tRNA synthetase (PylRS) variants that can charge CATKs, we co-transformed BL21(DE3) cells with two plasmids: pEVOL-PylRS encoding PylRS and tRNACUA, and pET-sfGFP-Q204TAG encoding sfGFP bearing an amber codon. We screened a panel of PylRS variants (Table 1), and found one carrying Y306V, L309A, C348F, and Y384F mutations, hereafter referred to as CATKRS, can charge CATK-1, -2, -4, and -7 site-specifically into sfGFP (FIGS. 2b and 10). The incorporations were also confirmed by SDS-PAGE (FIG. 10) and QTOF-LC/MS analyses (FIGS. 2c and 11). Some amount of GSH adducts (˜30%) were detected, presumably due to the high reactivity of CATKs at position-204, a site on sfGFP that is completely solvent exposed.
as §1, with “We note the lactam ring forms an intramolecular H-bond with the lysine ε-N—H (FIG. 32a), mimicking the pyrroline ring in pyrrolysine—the native substrate of PylRS.” left out

CATKRS = molecular target: T2, CATKRS (Methanosarcina mazei, UniProt Q8PWY1, C348F/L309A/Y306V/Y384F); assay: Fluorescence-based detection of CATK incorporation into sfGFP-Q204TAG in BL21(DE3) cells; format: cell-based; conditions: 1 mM CATK
T2 construct: expressed in transfected cells; host or cells: E. coli BL21(DE3) transformed with pEVOL-CATKRS
Source text: as §2
Site-specific incorporation of CATK into sfGFP. BL21(DE3) cells (50 μL) were co-transformed with the pET-sfGFP-Q204TAG and pEVOL-CATKRS plasmids using the heat shock method. The cells were recovered in 900 μL SOC at 37° C. for 1 hour before plating onto a Luria-Bertani (LB) agar plate containing 100 μg/mL ampicillin and 34 μg/mL chloramphenicol. A single colony from the plate was used to inoculate 6 mL LB broth containing 100 μg/mL ampicillin and 34 μg/mL chloramphenicol. One hundred twenty […] overnight culture was used to inoculate 12 mL LB broth containing the same concentrations of antibiotics. […] The culture was divided into two 6-mL portions. […] The cultures were incubated in an incubator-shaker (37° C., 280 rpm) for 8 hours. […] The supernatant was directly used for fluorescence tests after sonication and centrifugation. […] The mixture was incubated for 2 hours with gentle shaking.

HEK293T cells = format: cell-based; conditions: human, 24 h
Source text: (§3) To examine whether CATKs are compatible with genetic code expansion in mammalian cells, we first performed a cell viability assay by treating HEK293T cells with CATK-1 and -2 at various concentrations. […] We then cotransfected HEK293T cells with two plasmids: one encodes CATKRS/tRNA^Pyl, and the other encodes the mCherry-TAG-EGFP-HA reporter. The transfected cells were allowed to grow in DMEM supplemented with 10% FBS in the absence or presence of CATK-1.
Cell viability assay. One hundred μL exponentially growing HEK293T cells were seeded into a 96-well plate at a density of 5×10^5 cells per ml. After 24 h, the cells were treated with varying concentrations of CATK amino acids and then incubated at 37° C. for 24 h. Then, 10 μL CCK-8 solution (Dojindo) was added to each well and the cells were further incubated in 37° C. incubator for 1 h. The plates were read immediately using Biotek microtiter plate reader at 450 nm.

[4] = tested on: mCherry-TAG-EGFP-HA reporter; assay: Site-specific incorporation into mCherry-TAG-EGFP in HEK293T cells; format: cell-based, Human; conditions: CATKRS/tRNA^Pyl, 0.5 mM CATK-1, fluorescence microscopy and western blot
Source text: as §3
Site-specific incorporation of CATK-1 into mCherry-TAG-EGFP in mammalian cells. Human Embryonic Kidney 293T (HEK293T) cells were seeded in a 12-well plate and grown in DMEM supplemented with 10% FBS (HyClone™ GE Healthcare Life Sciences) and 10 μg/mL Gentamycin (Gibco) and 2 μg/mL Plasmocin at 37° C., 5% CO2 until ˜90% confluency. The medium was replaced with DMEM, and cells were transfected by using polyethylenimine (Sigma-Aldrich) in Opti-MEM® (Gibco) with two plasmids (one encoding CATKRS/tRNAPyl CUA pair and another encoding mCherry-TAG-EGFP-HA). Six hours post-transfection, the medium was replaced with fresh DMEM with 10% FBS in the presence or absence of 0.5 mM CATK-1. After 24 hours, live cell images were recorded using the Lionheart™ FX automated microscope (BioTek). The cells were lysed by modified RIPA buffer (25 mM Tris HCl, pH 7.4, 150 mM NaCl, 1% NP-40, 1% sodium deoxycholate, 0.1% SDS, 1 mM EDTA, 1 mM PSMF). […]

T2 sequence (Q8PWY1 whole entry Y306V/L309A/C348F/Y384F): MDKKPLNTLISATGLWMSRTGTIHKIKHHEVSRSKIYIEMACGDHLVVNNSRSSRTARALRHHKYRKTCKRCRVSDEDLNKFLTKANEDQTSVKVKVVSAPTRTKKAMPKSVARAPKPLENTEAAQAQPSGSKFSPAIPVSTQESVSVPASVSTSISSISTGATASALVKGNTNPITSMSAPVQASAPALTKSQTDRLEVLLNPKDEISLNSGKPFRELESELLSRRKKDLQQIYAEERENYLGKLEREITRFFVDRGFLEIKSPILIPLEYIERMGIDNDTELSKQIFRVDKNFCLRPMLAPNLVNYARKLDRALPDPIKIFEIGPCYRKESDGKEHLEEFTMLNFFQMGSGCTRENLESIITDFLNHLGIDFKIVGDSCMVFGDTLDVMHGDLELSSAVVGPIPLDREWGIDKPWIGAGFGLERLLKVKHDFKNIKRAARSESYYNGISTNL
T1 sequence (Q8PWY1 whole entry): as the sequence (Q8PWY1 whole entry Y306V/L309A/C348F/Y384F) above, with V306Y, A309L, F348C, F384Y counted along it

Compound | stability after incubation with glutathione [2] | site-specific charging into sfGFP by CATKRS (CATKRS) | other results
c1cn[nH]n1 [2H-1,2,3-trizole] | – | – | pKa [1]: 9.4
N[C@@H](Cc1ccc(N2CCC2=O)cc1)C(=O)O [BeLaF-2, (S)-2-amino-3-(4-(2-oxoazetidin-1-yl)phenyl)propanoic acid] | remained intact | – | –
N[C@@H](CCCCNC(=O)N1CCC1=O)C(=O)O [BeLaK, N^6-(2-Oxoazetidine-1-carbonyl)-L-lysine] | remained intact | – | increase in fluorescence of cell lysate over the background (wild-type PylRS): 75 fold; stability under bacterial culture conditions [3]: stable under bacterial culture conditions
N[C@@H](CCCCNC(=O)n1ncc(-c2ccccc2)n1)C(=O)O [CATK-1, N^6-(4-Phenyl-2H-1,2,3-triazole-2-carbonyl)-L-lysine] | – | can charge | concentrations at which cytotoxicity was not detected (HEK293T cells): ≤ 500 µM; incorporation into mCherry-TAG-EGFP-HA [4]: successful CATK-1 incorporation
N[C@@H](CCCCNC(=O)n1ncc(-c2cccs2)n1)C(=O)O [CATK-4, N^6-(4-(Thiophen-2-yl)-2H-1,2,3-triazole-2-carbonyl)-L-lysine] | – | can charge | –
Cn1cccc1-c1cnn(C(=O)NCCCC[C@H](N)C(=O)O)n1 [CATK-7, N^6-(4-(1-Methyl-1H-pyrrol-2-yl)-2H-1,2,3-triazole-2-carbonyl)-L-lysine] | – | can charge | –

— patent US20260117274A1, “ORTHOGONALLY CROSSLINKED PROTEINS, METHODS OF MAKING, AND USES THEREOF” (The Research Foundation for The State University of New York, priority 2022, published 2026)
